Assay results taken from patent US6426222B1, “Method for inducing osteoblast differentiation of human extramedullary adipose tissue cells” (Bio Holdings International Limited, priority 1997, dated 2002).

Columns and labels:
[1] = target: placenta type alkaline phosphatase (Homo sapiens, UniProt P05187); conditions: read-out: levamisole concentration for 50% inhibition of activity, placenta type alkaline phosphatase; cited from earlier work
[2] = target: intestine type alkaline phosphatase (Homo sapiens, UniProt P09923); conditions: read-out: levamisole concentration for 50% inhibition of activity, intestine type alkaline phosphatase; cited from earlier work
[3] = system: human extramedullary adipose tissue cells; assay: Alkaline phosphatase activity of treated cultures (para-nitrophenol phosphate substrate); type: cell-based; conditions: dexamethasone 10^-7 M
Description: Adipose tissue biopsies were taken during plastic surgery of the abdomen on healthy patients, of ages of from 25 to 50.
The tissues taken were sliced thinly into small fragments and digested for 90 minutes with collagenase (2 mg/ml) in a Krebs Ringer buffer at 37° C. Filtering was performed on a screen having a pore size of 100 μm, the filtrate was recovered, and centrifuged at 1000 revolutions per minute (rpm) for 5 min. The supernatant was removed and the pellet was washed several times in Krebs Ringer buffer. The washing and centrifuging steps were repeated several times and on each occasion the supernatant containing mature adipocytes was removed. The resulting cells were suspended in DME/F12 (Sigma Chemical Co., St. Louis, Mo. USA; reference D-6905) culture medium containing 10% fetal calf serum, 100 μg/ml streptomycin, and 100 U/ml penicillin.
Polystyrene culture dishes (“tissue culture flasks” sold by Becton-Dickinson under the references 3013, 3028, and 3084) were inoculated with the resulting cell suspension and incubation was performed at 37° C. under an atmosphere of moist air with 5% additional CO2. […]
The quantity of para-nitrophenol formed upon hydrolysis of the substrate was determined by measuring the absorbance at 410 nm, which was converted into nanomoles of enzyme using a calibration curve established on the basis of known concentrations of para-nitrophenol.

Sequence of placenta type alkaline phosphatase (P05187 23-506 limits assumed): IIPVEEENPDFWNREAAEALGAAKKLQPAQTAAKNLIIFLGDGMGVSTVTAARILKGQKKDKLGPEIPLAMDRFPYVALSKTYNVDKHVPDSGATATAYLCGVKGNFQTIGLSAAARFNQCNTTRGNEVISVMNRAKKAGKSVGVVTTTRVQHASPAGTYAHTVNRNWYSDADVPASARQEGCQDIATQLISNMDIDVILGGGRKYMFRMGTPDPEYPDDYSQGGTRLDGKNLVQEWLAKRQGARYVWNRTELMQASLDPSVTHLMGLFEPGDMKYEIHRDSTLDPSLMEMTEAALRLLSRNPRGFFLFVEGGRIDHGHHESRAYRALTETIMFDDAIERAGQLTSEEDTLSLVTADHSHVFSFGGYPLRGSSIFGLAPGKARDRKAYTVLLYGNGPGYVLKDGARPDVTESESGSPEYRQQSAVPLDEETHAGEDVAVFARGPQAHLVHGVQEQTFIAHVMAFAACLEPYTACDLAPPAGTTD
Sequence of intestine type alkaline phosphatase (P09923 20-503 limits assumed): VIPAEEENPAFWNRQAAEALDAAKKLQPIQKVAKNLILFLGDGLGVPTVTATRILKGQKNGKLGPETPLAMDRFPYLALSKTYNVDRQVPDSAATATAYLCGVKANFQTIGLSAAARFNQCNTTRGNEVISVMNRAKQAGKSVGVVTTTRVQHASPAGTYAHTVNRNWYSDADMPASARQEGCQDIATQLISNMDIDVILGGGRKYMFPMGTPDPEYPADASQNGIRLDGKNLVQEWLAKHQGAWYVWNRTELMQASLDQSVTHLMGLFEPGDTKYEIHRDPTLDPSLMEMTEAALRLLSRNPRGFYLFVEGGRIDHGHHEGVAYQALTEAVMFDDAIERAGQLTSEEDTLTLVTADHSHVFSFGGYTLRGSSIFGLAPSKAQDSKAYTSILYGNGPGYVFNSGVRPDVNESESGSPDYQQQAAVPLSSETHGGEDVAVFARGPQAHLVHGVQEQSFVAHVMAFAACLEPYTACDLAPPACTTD

SMILES | IC50 [1] [µM] | IC50 [2] [µM] | alkaline phosphatase activity, observed in nearly all cases [3] | alkaline phosphatase activity, sometimes as high as [3] [nanomoles/30 min/well]
c1ccc([C@H]2CN3CCSC3=N2)cc1 [levamisole] | ~1000 | ~3000 | – | –
C[C@@H]1C[C@H]2[C@@H]3CCC4=CC(=O)C=C[C@]4(C)[C@@]3(F)[C@@H](O)C[C@]2(C)[C@@]1(O)C(=O)CO [dexamethasone] | – | – | not less than 200 nanomoles of para-nitrophenol/30 min/well | ≤ 700
